In paper PMC12775434, “Ultra-large virtual screening unveils potent agonists of the neuromodulatory orphan receptor GPR139” (Nature Communications, 2025):
Values joined by “and” are separate entries in the source; they are usually repeats but may differ in a detail not shown here. Equal values may be shown once.

Columns and labels:
GPR139 (Gi3 activation) = molecular target: T1, GPR139 (Gi3 activation) (Homo sapiens, UniProt Q6DWJ6); experiment: BRET G protein activation (dissociation) assay, Gi3, HEK293A; assay type: cell-based; conditions: for G protein activation, Gi3: individual replicates
T1 construct: expressed in transfected cells; host or cells: HEK293A (transient, Lipofectamine 2000)
T1 sequence (Q6DWJ6 1-353): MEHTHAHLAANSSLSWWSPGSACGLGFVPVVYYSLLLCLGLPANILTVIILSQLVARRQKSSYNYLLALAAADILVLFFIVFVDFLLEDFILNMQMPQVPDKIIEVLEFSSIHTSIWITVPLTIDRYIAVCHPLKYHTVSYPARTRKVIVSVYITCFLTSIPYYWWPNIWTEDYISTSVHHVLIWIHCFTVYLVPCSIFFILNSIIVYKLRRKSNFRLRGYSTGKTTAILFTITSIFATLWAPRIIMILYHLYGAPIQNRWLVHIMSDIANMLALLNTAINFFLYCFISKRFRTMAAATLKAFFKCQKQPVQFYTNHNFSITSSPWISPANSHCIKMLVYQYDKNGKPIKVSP
Experimental: (§1) Primary screening and pharmacological characterization of compounds were performed using a CHO-K1 cell line that stably expresses human GPR139 (GPR139-CHOk1). The GPR139-CHOk1 cell line was kindly provided by H. Lundbeck A/S, Denmark[24]. GPR139-CHOk1 cells were grown in Ham’s F-12 Kaighn’s Modification Medium (ThermoFisher #21127030) supplemented with 10% dialyzed fetal bovine serum (US origin, ThermoFisher #26400044), 100 units/mL Penicillin-Streptomycin (ThermoFisher #15140122), and 1 mg/mL Geneticin (ThermoFisher #11811031). […] M1R-CHOk1 cells were purchased from The Missouri S&T cDNA Resource Center (#CEM100TN00). M1R-CHOk1 cells were grown in Ham’s F12 Medium (ThermoFisher #21765029) supplemented with 10% fetal bovine serum (Brazilian origin, ThermoFisher #10270106), 100 units/mL Penicillin-Streptomycin, and 0.25 mg/mL Geneticin. HEK293A cells transiently transfected with GPR139 were used for additional pharmacological assessment of signaling pathways activated by GPR139. HEK239A cells were generously provided by Dr. Asuka Inoue, Tohoku University, Japan. HEK293A cells were grown in Dulbecco’s Modified Eagle Medium (ThermoFisher #31966047) supplemented with 10% dialyzed fetal bovine serum and 100 units/mL Penicillin-Streptomycin. Cell lines were maintained at 37 °C in humidified incubator equilibrated with 5% CO2.
(§2) The G protein dissociation assay developed by the lab of Kirill A. Martemyanov was used to measure the coupling of multiple G proteins by GPR139[57]. The assay was performed as described previously with minor modifications. HEK293A cells were reverse transfected 20–24 h prior to assay. 50,000 cells were plated in each well of white opaque tissue culture treated 96-well plates (PerkinElmer #6005680) previously coated with poly-D-lysine. Transfection solutions were prepared as described, and 10 µL transfection solution was mixed with 100 µL cells in each well. The cells in each well were transfected with 18.9 ng GPR139, 6.3 ng Venus 1-155 Gγ2, 6.3 ng Venus 159-239 Gβ1, 6.3 ng masGRK3ct-NanoLuc and 12.6 ng Gαi2, 12.6 ng Gαi3, 12.6 ng GαoA, 12.6 ng Gαq or 25.2 ng Gα12 using 375 nL Lipofectamine 2000 Transfection Reagent. Transfections with Gαq and Gα12 contained 6.3 ng DNA of the active subunit S1 of pertussis toxin (PTX-S1). Each transfection was normalized to 150 ng total DNA with pcDNA3.1. The BRET biosensors were a kind gift from the Martemyanov lab. On the day of the experiment the cells were washed with HEPES buffer. Test compounds were diluted in HEPES buffer from DMSO stocks (final DMSO concentration of maximally 0.3%). NanoLuc Luciferase substrate NanoGlo—furimazine (Promega #N1120) was diluted 1000-fold (final) in HEPES buffer. NanoGlo and test compounds were added, and measurements were performed after 10 s for Gi3, 15 s for Gi2 and GoA, 20 s for Gq, and 90 s for G12—the timepoint where maximal signal occurred with each G protein, ensuring proper determination of the potency for the G protein coupling. Simultaneous dual emission was measured at 535 nm and 475 nm on LUMIstar Omega Microplate Reader (BMG Labtech) at room temperature. The BRET ratio of 535 nm/475 nm (Venus/NanoLuc), reflecting the dissociation of the G protein heterotrimer, was used to determine the G protein activation. The basal BRET ratio obtained with buffer condition was subtracted from the absolute BRET ratio at a given test compound concentration, and the responses were normalized to the one obtained with 10 µM JNJ-63533054 for the activation of Gi2.
(§3) Pharmacological data and statistical analyses were performed in GraphPad Prism v9–10 (Graphpad Software Inc., San Diego, CA), which are also specifically described in the figure and table legends. […]

GPR139 (Gq activation) = molecular target: T2, GPR139 (Gq activation) (Homo sapiens, UniProt Q6DWJ6); experiment: BRET G protein activation (dissociation) assay, Gq, HEK293A; assay type: cell-based; conditions: for G protein activation, Gq: individual replicates
T2 construct: expressed in transfected cells; host or cells: HEK293A (transient, Lipofectamine 2000)
T2 sequence (Q6DWJ6 1-353): T1 sequence (Q6DWJ6 1-353)
Experimental: as §1, §2, §3

[1] = HEK293-A, normalized to JNJ-63533054 (JNJ(S))

Cc1cscc1-c1nc(CC(=O)N[C@H](C)c2ccccc2)no1 [1.1(R)]
Emax (GPR139 (Gi3 activation); [1]): 37 ± 1% | EC50 (GPR139 (Gi3 activation); Supplementary Table 6, read-out: pEC50 Gi3 (converted)): 794 nM | G protein activation, Gi3 (GPR139 (Gi3 activation); log [compound] M -4.5): 39 % of JNJ-63533054 at Gi2 and 35 % of JNJ-63533054 at Gi2 and 34 % of JNJ-63533054 at Gi2 | G protein activation, Gi3 (GPR139 (Gi3 activation); log [compound] M -5.0): 33 % of JNJ-63533054 at Gi2 and 34 % of JNJ-63533054 at Gi2 (2×) | G protein activation, Gi3 (GPR139 (Gi3 activation); log [compound] M -5.5): 30 % of JNJ-63533054 at Gi2 (2×) and 24 % of JNJ-63533054 at Gi2 | G protein activation, Gi3 (GPR139 (Gi3 activation); log [compound] M -6.0): 21 % of JNJ-63533054 at Gi2 and 22 % of JNJ-63533054 at Gi2 and 20 % of JNJ-63533054 at Gi2 | G protein activation, Gi3 (GPR139 (Gi3 activation); log [compound] M -6.5): 11 % of JNJ-63533054 at Gi2 (2×) and 12 % of JNJ-63533054 at Gi2 | G protein activation, Gi3 (GPR139 (Gi3 activation); log [compound] M -7.0): 1 % of JNJ-63533054 at Gi2 and 4.71 % of JNJ-63533054 at Gi2 and 3.32 % of JNJ-63533054 at Gi2 | G protein activation, Gi3 (GPR139 (Gi3 activation); log [compound] M -7.5): -0.169 % of JNJ-63533054 at Gi2 and 1.37 % of JNJ-63533054 at Gi2 and 5.42 % of JNJ-63533054 at Gi2 | G protein activation, Gi3 (GPR139 (Gi3 activation); log [compound] M -8.0): -2.27 % of JNJ-63533054 at Gi2 and 2 % of JNJ-63533054 at Gi2 and 10 % of JNJ-63533054 at Gi2 | Emax (GPR139 (Gq activation); [1]): 21 ± 3% | EC50 (GPR139 (Gq activation); Supplementary Table 6): 2510 nM | G protein activation, Gq (GPR139 (Gq activation); log [compound] M -4.5): 17 % of JNJ-63533054 at Gi2 (2×) and 25 % of JNJ-63533054 at Gi2 | G protein activation, Gq (GPR139 (Gq activation); log [compound] M -5.0): 16 % of JNJ-63533054 at Gi2 and 21 % of JNJ-63533054 at Gi2 and 15 % of JNJ-63533054 at Gi2 | G protein activation, Gq (GPR139 (Gq activation); log [compound] M -5.5): 10 % of JNJ-63533054 at Gi2 and 12 % of JNJ-63533054 at Gi2 (2×) | G protein activation, Gq (GPR139 (Gq activation); log [compound] M -6.0): 4.28 % of JNJ-63533054 at Gi2 and 5.63 % of JNJ-63533054 at Gi2 and 5 % of JNJ-63533054 at Gi2 | G protein activation, Gq (GPR139 (Gq activation); log [compound] M -6.5): 0.0563 % of JNJ-63533054 at Gi2 and -0.806 % of JNJ-63533054 at Gi2 and 0.934 % of JNJ-63533054 at Gi2 | G protein activation, Gq (GPR139 (Gq activation); log [compound] M -7.0): -1.52 % of JNJ-63533054 at Gi2 and -1.69 % of JNJ-63533054 at Gi2 and -0.279 % of JNJ-63533054 at Gi2 | G protein activation, Gq (GPR139 (Gq activation); log [compound] M -7.5): -0.908 % of JNJ-63533054 at Gi2 and -3 % of JNJ-63533054 at Gi2 and -0.0719 % of JNJ-63533054 at Gi2 | G protein activation, Gq (GPR139 (Gq activation); log [compound] M -8.0): -5.54 % of JNJ-63533054 at Gi2 and -3 % of JNJ-63533054 at Gi2 and 1.13 % of JNJ-63533054 at Gi2
